Reference: ChEMBL document CHEMBL1201862, “PubChem BioAssay data set” (2004)
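1) Cells in 96-well plates. 2) Compound, 48 h, 5 concentrations. 3) Linear interpolation between surrounding doses. 4) Unreached endpoint = highest concentration. GI50 marks 50% less growth.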 Activity calls are given as the source filed them. Rule as the data show it: active = GI50 up to about 1.1 µM and inactive = higher.

Assays:
Assay in all cases: NCI-60 cell line screen, 48 h
[1] = system: 786-0
[2] = system: A498
[3] = system: A549
[4] = system: ACHN
[5] = system: BT-549
[6] = system: CAKI-1
[7] = system: CCRF-CEM
[8] = system: COLO 205
[9] = system: DU-145
[10] = system: EKVX
[11] = system: HCT-116
[12] = system: HCT-15
[13] = system: HL-60
[14] = system: HOP-62
[15] = system: HT-29
[16] = system: K562
[17] = system: KM12
[18] = system: LOX IMVI
[19] = system: M14
[20] = system: MCF7
[21] = system: MDA-MB-231
[22] = system: MDA-MB-435
[23] = system: MDA-N
[24] = system: MOLT-4
[25] = system: Malme-3M
[26] = system: NCI-H226
[27] = system: NCI-H23
[28] = system: NCI-H460
[29] = system: NCI/ADR-RES
[30] = system: OVCAR-3
[31] = system: OVCAR-4
[32] = system: OVCAR-5
[33] = system: OVCAR-8
[34] = system: PC-3
[35] = system: RPMI-8226
[36] = system: RXF 393
[37] = system: SF-268
[38] = system: SF-295
[39] = system: SF-539
[40] = system: SK-MEL-28
[41] = system: SK-MEL-2
[42] = system: SK-MEL-5
[43] = system: SK-OV-3
[44] = system: SN12C
[45] = system: SNB-19
[46] = system: SNB-75
[47] = system: SW-620
[48] = system: T47D
[49] = system: TK-10
[50] = system: U-251
[51] = system: UACC-62
[52] = system: UO-31
[53] = system: HCC 2998
[54] = system: HOP-92
[55] = system: Hs-578T
[56] = system: IGROV-1
[57] = system: SR
[58] = system: UACC-257

Nc1cc2nc(-c3ccccc3)cn2cn1
GI50 [1]: > 100 µM (inactive) | GI50 [2]: 27.9 µM (inactive) | GI50 [3]: > 100 µM (inactive) | GI50 [4]: > 100 µM (inactive) | GI50 [5]: > 100 µM (inactive) | GI50 [6]: 89.9 µM (inactive) | GI50 [7]: 86.5 µM (inactive) | GI50 [8]: > 100 µM (inactive) | GI50 [9]: > 100 µM (inactive) | GI50 [10]: 29.3 µM (inactive) | GI50 [11]: > 100 µM (inactive) | GI50 [12]: > 100 µM | GI50 [13]: > 100 µM (inactive) | GI50 [14]: > 100 µM (inactive) | GI50 [15]: 47.2 µM (inactive) | GI50 [16]: > 100 µM (inactive) | GI50 [17]: 66.2 µM (inactive) | GI50 [18]: 84.5 µM (inactive) | GI50 [19]: > 100 µM (inactive) | GI50 [20]: 70.1 µM (inactive) | GI50 [21]: > 100 µM (inactive) | GI50 [22]: > 100 µM (inactive) | GI50 [23]: > 100 µM (inactive) | GI50 [24]: > 100 µM (inactive) | GI50 [25]: 20.2 µM (inactive) | GI50 [26]: > 100 µM (inactive) | GI50 [27]: > 100 µM (inactive) | GI50 [28]: 99.1 µM (inactive) | GI50 [29]: > 100 µM (inactive) | GI50 [30]: > 100 µM (inactive) | GI50 [31]: > 100 µM (inactive) | GI50 [32]: 79.6 µM (inactive) | GI50 [33]: > 100 µM (inactive) | GI50 [34]: 50 µM (inactive) | GI50 [35]: 65 µM (inactive) | GI50 [36]: 50.9 µM (inactive) | GI50 [37]: > 100 µM (inactive) | GI50 [38]: > 100 µM (inactive) | GI50 [39]: > 100 µM (inactive) | GI50 [40]: > 100 µM (inactive) | GI50 [41]: > 100 µM (inactive) | GI50 [42]: 35.5 µM (inactive) | GI50 [43]: > 100 µM (inactive) | GI50 [44]: 85.1 µM (inactive) | GI50 [45]: > 100 µM (inactive) | GI50 [46]: 40.2 µM (inactive) | GI50 [47]: > 100 µM (inactive) | GI50 [48]: > 100 µM (inactive) | GI50 [49]: 50.5 µM (inactive) | GI50 [50]: > 100 µM (inactive) | GI50 [51]: 54.6 µM (inactive) | GI50 [52]: 32.4 µM (inactive)

Nc1nc(NNc2ccc(Cl)c(Cl)c2)cc(=O)[nH]1
GI50 [1]: 21.6 µM (inactive) | GI50 [2]: > 100 µM (inactive) | GI50 [3]: 45.7 µM (inactive) | GI50 [4]: 35.6 µM (inactive) | GI50 [5]: 33.7 µM (inactive) | GI50 [7]: 36.4 µM (inactive) | GI50 [8]: 16.6 µM (inactive) | GI50 [9]: 35.8 µM (inactive) | GI50 [10]: 39.2 µM (inactive) | GI50 [53]: 19.8 µM (inactive) | GI50 [11]: 52.4 µM (inactive) | GI50 [12]: 19.7 µM | GI50 [13]: 26.4 µM (inactive) | GI50 [14]: 70.8 µM (inactive) | GI50 [54]: 21.9 µM (inactive) | GI50 [15]: 34.4 µM (inactive) | GI50 [55]: 30.5 µM (inactive) | GI50 [56]: 28.4 µM (inactive) | GI50 [16]: 18.9 µM (inactive) | GI50 [17]: 30.8 µM (inactive) | GI50 [18]: 17.3 µM (inactive) | GI50 [19]: 34.2 µM (inactive) | GI50 [20]: 17.3 µM (inactive) | GI50 [21]: 33.8 µM (inactive) | GI50 [22]: 25.4 µM (inactive) | GI50 [23]: 35.5 µM (inactive) | GI50 [24]: 19.4 µM (inactive) | GI50 [25]: 46.9 µM (inactive) | GI50 [26]: 78.9 µM (inactive) | GI50 [27]: 34 µM (inactive) | GI50 [28]: 41.6 µM (inactive) | GI50 [29]: 47.5 µM (inactive) | GI50 [30]: 23 µM (inactive) | GI50 [31]: 52 µM (inactive) | GI50 [32]: 43.4 µM (inactive) | GI50 [33]: 44.9 µM (inactive) | GI50 [34]: 34 µM (inactive) | GI50 [35]: 32.2 µM (inactive) | GI50 [36]: 25.5 µM (inactive) | GI50 [37]: 19.7 µM (inactive) | GI50 [38]: 54.1 µM (inactive) | GI50 [39]: 99.1 µM (inactive) | GI50 [40]: 52.1 µM (inactive) | GI50 [42]: 33.4 µM (inactive) | GI50 [44]: 38.1 µM (inactive) | GI50 [45]: 72.6 µM (inactive) | GI50 [57]: 31.7 µM (inactive) | GI50 [47]: 22.8 µM (inactive) | GI50 [49]: > 100 µM (inactive) | GI50 [50]: 24.2 µM (inactive) | GI50 [58]: 43.2 µM (inactive) | GI50 [52]: 29.9 µM (inactive)
